The supplement of paper PMC10883282
± gives the standard deviation of the averaged measurements.

What was measured:
Assay in all cases: relative viability vs DMSO control (72 h) (fraction); higher = more viable cells
KHOS-240S = test system: KHOS-240S
Outline: (§1)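 After seeding at densities set for 80–90% confluence in 384-well plates, sarcoma cell lines waited 24 h before 2.5 µl of serially diluted compound was added. Source plates held 10 mM down to 0.0002 mM. Plates were incubated 72 h at 37 °C with 5% CO2, with 0.1% DMSO vehicle and a 5 µM positive control, and relative viability was taken from ATPLite as percent growth averaged over up to triplicate wells, with 1 set as full and 0 as none.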

MES-SA = test system: MES-SA
Outline: as §1

RD = test system: RD
Outline: as §1

SW1353 = test system: SW1353
Outline: as §1

SYO-1 = test system: SYO-1
Outline: as §1

`CN1CC[C@@H](NC(=O)Nc2ccc(C#N)cc2)C[C@@H]1c1nc2ccccc2[nH]1` [Glasdegib] showed a relative viability (KHOS-240S; 0.00017 µM) of 1.04 ± 0.028, a relative viability (KHOS-240S; 0.00051 µM) of 1.061 ± 0.0035 and a relative viability (KHOS-240S; 0.00152 µM) of 1.08 ± 0.015. For the same compound, the relative viability (KHOS-240S; 0.00457 µM) was 1.08 ± 0.042, the relative viability (KHOS-240S; 0.01372 µM) was 1.06 ± 0.05 and the relative viability (KHOS-240S; 0.04115 µM) was 1.06 ± 0.018. The relative viability (KHOS-240S; 0.1235 µM) was 1.05 ± 0.019, the relative viability (KHOS-240S; 0.3704 µM) was 1.065 ± 0.0064 and the relative viability (KHOS-240S; 1.111 µM) was 1.05 ± 0.015. For the same compound, the relative viability (KHOS-240S; 3.333 µM) was 1.05 ± 0.017, the relative viability (KHOS-240S; 10 µM) was 1.03 ± 0.043 and the relative viability (MES-SA; 0.00017 µM) was 0.945 ± 0.011. For the same compound, the relative viability (MES-SA; 0.00051 µM) was 0.956 ± 0.026, the relative viability (MES-SA; 0.00152 µM) was 0.976 ± 0.015 and the relative viability (MES-SA; 0.00457 µM) was 0.956 ± 0.029. The relative viability (MES-SA; 0.01372 µM) was 0.952 ± 0.054, the relative viability (MES-SA; 0.04115 µM) was 0.915 ± 0.028 and the relative viability (MES-SA; 0.1235 µM) was 0.938 ± 0.04. The relative viability (MES-SA; 0.3704 µM) was 0.919 ± 0.016, the relative viability (MES-SA; 1.111 µM) was 0.926 ± 0.066 and the relative viability (MES-SA; 3.333 µM) was 0.935 ± 0.029. It also gave a relative viability (MES-SA; 10 µM) of 0.85 ± 0.024, a relative viability (RD; 0.00017 µM) of 1.02 ± 0.021 and a relative viability (RD; 0.00051 µM) of 1.03 ± 0.05. The relative viability (RD; 0.00152 µM) was 1.05 ± 0.065, the relative viability (RD; 0.00457 µM) was 1.04 ± 0.065 and the relative viability (RD; 0.01372 µM) was 1.02 ± 0.044. For the same compound, the relative viability (RD; 0.04115 µM) was 0.99 ± 0.021, the relative viability (RD; 0.1235 µM) was 0.988 ± 0.016 and the relative viability (RD; 0.3704 µM) was 0.983 ± 0.057. The relative viability (RD; 1.111 µM) was 1.02 ± 0.095, the relative viability (RD; 3.333 µM) was 1 ± 0.08 and the relative viability (RD; 10 µM) was 1.06 ± 0.038. The relative viability (SW1353; 0.00017 µM) was 1.1 ± 0.013, the relative viability (SW1353; 0.00051 µM) was 1.1 ± 0.015 and the relative viability (SW1353; 0.00152 µM) was 1.08 ± 0.037. For the same compound, the relative viability (SW1353; 0.00457 µM) was 1.1 ± 0.031, the relative viability (SW1353; 0.01372 µM) was 1.09 ± 0.038 and the relative viability (SW1353; 0.04115 µM) was 1.07 ± 0.015. The relative viability (SW1353; 0.1235 µM) was 1.07 ± 0.018, the relative viability (SW1353; 0.3704 µM) was 1.07 ± 0.028 and the relative viability (SW1353; 1.111 µM) was 1.1 ± 0.025. It also gave a relative viability (SW1353; 3.333 µM) of 1.09 ± 0.029, a relative viability (SW1353; 10 µM) of 1.04 ± 0.024 and a relative viability (SYO-1; 0.00017 µM) of 1.032 ± 0.0056. It also gave a relative viability (SYO-1; 0.00051 µM) of 1.01 ± 0.031, a relative viability (SYO-1; 0.00152 µM) of 1.01 ± 0.025 and a relative viability (SYO-1; 0.00457 µM) of 0.99 ± 0.031. The relative viability (SYO-1; 0.01372 µM) was 0.973 ± 0.043, the relative viability (SYO-1; 0.04115 µM) was 0.976 ± 0.043 and the relative viability (SYO-1; 0.1235 µM) was 0.991 ± 0.043. For the same compound, the relative viability (SYO-1; 0.3704 µM) was 1 ± 0.035, the relative viability (SYO-1; 1.111 µM) was 0.999 ± 0.05 and the relative viability (SYO-1; 3.333 µM) was 0.975 ± 0.043. The relative viability (SYO-1; 10 µM) was 0.981 ± 0.072.
Compound `CNC(=O)c1ccccc1Sc1ccc2c(/C=C/c3ccccn3)n[nH]c2c1` [Axitinib] has a relative viability (KHOS-240S; 0.00017 µM) of 1.05 ± 0.041, a relative viability (KHOS-240S; 0.00051 µM) of 1.02 ± 0.03 and a relative viability (KHOS-240S; 0.00152 µM) of 1.04 ± 0.042. It also gave a relative viability (KHOS-240S; 0.00457 µM) of 1.05 ± 0.049, a relative viability (KHOS-240S; 0.01372 µM) of 1.02 ± 0.035 and a relative viability (KHOS-240S; 0.04115 µM) of 1.01 ± 0.038. It also gave a relative viability (KHOS-240S; 0.1235 µM) of 0.964 ± 0.021, a relative viability (KHOS-240S; 0.3704 µM) of 0.802 ± 0.021 and a relative viability (KHOS-240S; 1.111 µM) of 0.791 ± 0.056. For the same compound, the relative viability (KHOS-240S; 3.333 µM) was 0.495 ± 0.028, the relative viability (KHOS-240S; 10 µM) was 0.214 ± 0.013 and the relative viability (MES-SA; 0.00017 µM) was 0.995 ± 0.025. For the same compound, the relative viability (MES-SA; 0.00051 µM) was 0.9681 ± 0.0042, the relative viability (MES-SA; 0.00152 µM) was 0.978 ± 0.036 and the relative viability (MES-SA; 0.00457 µM) was 0.977 ± 0.03. For the same compound, the relative viability (MES-SA; 0.01372 µM) was 0.967 ± 0.02, the relative viability (MES-SA; 0.04115 µM) was 0.949 ± 0.015 and the relative viability (MES-SA; 0.1235 µM) was 0.951 ± 0.05. It also gave a relative viability (MES-SA; 0.3704 µM) of 0.785 ± 0.018, a relative viability (MES-SA; 1.111 µM) of 0.825 ± 0.056 and a relative viability (MES-SA; 3.333 µM) of 0.257 ± 0.02. For the same compound, the relative viability (MES-SA; 10 µM) was 0.056 ± 0.0056, the relative viability (RD; 0.00017 µM) was 0.981 ± 0.08 and the relative viability (RD; 0.00051 µM) was 0.977 ± 0.036. It also gave a relative viability (RD; 0.00152 µM) of 1 ± 0.025, a relative viability (RD; 0.00457 µM) of 1.01 ± 0.029 and a relative viability (RD; 0.01372 µM) of 1.01 ± 0.07. The relative viability (RD; 0.04115 µM) was 0.98 ± 0.048, the relative viability (RD; 0.1235 µM) was 0.984 ± 0.026 and the relative viability (RD; 0.3704 µM) was 0.892 ± 0.046. The relative viability (RD; 1.111 µM) was 0.874 ± 0.037, the relative viability (RD; 3.333 µM) was 0.465 ± 0.028 and the relative viability (RD; 10 µM) was 0.183 ± 0.0068. It also gave a relative viability (SW1353; 0.00017 µM) of 1.09 ± 0.041, a relative viability (SW1353; 0.00051 µM) of 1.1 ± 0.015 and a relative viability (SW1353; 0.00152 µM) of 1.05 ± 0.019. It also gave a relative viability (SW1353; 0.00457 µM) of 1.04 ± 0.041, a relative viability (SW1353; 0.01372 µM) of 1.04 ± 0.02 and a relative viability (SW1353; 0.04115 µM) of 1.01 ± 0.034. The relative viability (SW1353; 0.1235 µM) was 1.02 ± 0.079, the relative viability (SW1353; 0.3704 µM) was 0.908 ± 0.026 and the relative viability (SW1353; 1.111 µM) was 0.94 ± 0.035. It also gave a relative viability (SW1353; 3.333 µM) of 0.789 ± 0.036, a relative viability (SW1353; 10 µM) of 0.288 ± 0.011 and a relative viability (SYO-1; 0.00017 µM) of 1 ± 0.0059. It also gave a relative viability (SYO-1; 0.00051 µM) of 0.973 ± 0.026, a relative viability (SYO-1; 0.00152 µM) of 0.9673 ± 0.009 and a relative viability (SYO-1; 0.00457 µM) of 0.913 ± 0.011. For the same compound, the relative viability (SYO-1; 0.01372 µM) was 0.841 ± 0.038, the relative viability (SYO-1; 0.04115 µM) was 0.742 ± 0.035 and the relative viability (SYO-1; 0.1235 µM) was 0.662 ± 0.013. The relative viability (SYO-1; 0.3704 µM) was 0.485 ± 0.036, the relative viability (SYO-1; 1.111 µM) was 0.422 ± 0.026 and the relative viability (SYO-1; 3.333 µM) was 0.141 ± 0.018. It also gave a relative viability (SYO-1; 10 µM) of 0.0669 ± 0.017.
